Measurements from patent publication US4330529A, “Antibacterial composition” (Fujisawa Pharmaceutical Co., Ltd., priority 1979, dated 1982).
Read-outs that look alike come from different tables or passages of the source.

Assays:
Assay type in all cases: cell-based
[1] = system: Pseudomonas aeruginosa 1101-76; assay: MIC and FIC, Nutrient agar (Test 3); conditions: Pseudomonas aeruginosa, 110176; P. aeruginosa 1101-76; 20 h; read-out: MIC
[2] = system: Escherichia coli 1341-18R^+; assay: MIC and FIC, Nutrient agar (Test 3); conditions: 20 h
[3] = system: Klebsiella pneumoniae NCTC 418; assay: MIC and FIC, Nutrient agar (Tests 2, 3); conditions: NCTC418, K. pneumoniae NCTC 418, 20 h
Description: (§1) After the incubation was carried out at 37° C. for 20 hours, MIC values were determined.

Proteus vulgaris 7 = assay: MIC and FIC, Nutrient agar (Tests 7, 9); conditions: Proteus vulgaris; P. vulgaris 7; 18 h; read-out: MIC
Proteus morganii 1433-2 = assay: MIC and FIC, Nutrient agar (Tests 2, 3); conditions: Morganella morganii, 14332; P. morganii 1433-2; 20 h
Description: as §1

[4] = system: Serratia marcescens 1421-4; assay: MIC and FIC, Nutrient agar (Tests 2, 3)
Proteus rettgeri 1434-3 = assay: MIC and FIC, Nutrient agar (Test 3); conditions: Providencia rettgeri, 14343; P. rettgeri 1434-3; 20 h
Description: as §1
(§2) FIC values and FIC Index were calculated in substantially the same manner as described in Test 1.

[5] = system: Enterobacter cloacae 1401-4; assay: MIC and FIC, Nutrient agar (Tests 2, 3); conditions: Enterobacter cloacae, 14014; E. cloacae 1401-4; 20 h; read-out: MIC
[6] = system: Staphylococcus epidermidis 1601-1; assay: MIC and FIC, Nutrient agar (Tests 2, 3); conditions: 16011, S. epidermidis 1601-1, 20 h
Description: as §1

Citrobacter freundii 35 = assay: MIC and FIC, Nutrient agar (Tests 6, 7, 9)
[7] = system: Enterobacter aerogenes 1402-10; assay: MIC and FIC, Nutrient agar (Tests 2, 3); conditions: Klebsiella aerogenes, 140210; E. aerogenes 1402-10; 20 h; read-out: MIC
[8] = system: Proteus mirabilis 1432-75; assay: MIC and FIC, Nutrient agar (Tests 2, 3); conditions: Proteus mirabilis, 143275, 20 h
[9] = system: Salmonella typhimurium 1406; assay: MIC and FIC, Nutrient agar (Tests 2, 3); conditions: Salmonella enterica, TYPHIMURIUM, 20 h
Staphylococcus aureus 3 = assay: MIC and FIC, Nutrient agar (Tests 6, 7); conditions: Staphylococcus aureus; S. aureus 3; 18 h; read-out: MIC
Description: as §2

Enterobacter aerogenes 7 = assay: MIC and FIC, Nutrient agar (Tests 6, 7, 9); conditions: Klebsiella aerogenes; E. aerogenes 7; 18 h; read-out: MIC
Description: as §2

Row | SMILES | MIC [1] | MIC [2] | MIC [3] | MIC (Proteus vulgaris 7) | MIC (Proteus morganii 1433-2) | MIC ([4]; Serratia marcescens, 14214, S. marcescens 1421-4, agar, 20 h, read-out: MIC) | MIC (Proteus rettgeri 1434-3) | MIC [5] | MIC [6] | MIC (Citrobacter freundii 35; Citrobacter freundii, C. freundii 35, 18 h, read-out: MIC) | MIC [7] | MIC [8] | MIC ([4]; Serratia marcescens, 14214, 20 h) | MIC [9] | MIC (Staphylococcus aureus 3) | MIC (Enterobacter aerogenes 7) | MIC (Citrobacter freundii 35; Citrobacter freundii, 35, 18 h)
1 | Cc1nnc(SCC2=C(C(=O)O)N3C(=O)[C@@H](NC(=O)Cn4cnnn4)[C@H]3SC2)s1 [B (Table 3), cefazolin] | ≥ 400 µg/mL | 3.13 µg/mL | 1.56 µg/mL | 100 µg/mL | 25 µg/mL | 400 µg/mL | 6.25 µg/mL | ≥ 400 µg/mL | 0.39 µg/mL | 50 µg/mL | 12.5 µg/mL |  |  |  |  |  | 
2 | CC1(C)S[C@@H]2[C@H](NC(=O)C(C(=O)O)c3ccsc3)C(=O)N2[C@H]1C(=O)O (some centres unmarked) [B (Table 4), ticarcillin] |  |  | 100 µg/mL |  |  |  |  | 50 µg/mL | 3.13 µg/mL |  |  | 0.78 µg/mL | 25 µg/mL | 1.56 µg/mL |  |  | 
3 | NC[C@H]1O[C@H](O[C@H]2[C@H](O)[C@@H](O[C@H]3O[C@H](CO)[C@@H](O)[C@H](N)[C@H]3O)[C@H](N)C[C@@H]2N)[C@H](N)C[C@@H]1O [B (Table 9), Tobramycin] |  |  |  |  |  |  |  |  |  |  |  |  |  |  | 0.39 µg/mL | 6.25 µg/mL | 3.13 µg/mL
